Source: patent US6719969B1, “Treatment of liver disease and injury with CXC chemokines” (The Regents of The University of Michigan, priority 1999, dated 2004)

Tests used:
CD1 and BALB/c mice = assay: Acetaminophen lethality, pilot studies in CD1 and BALB/c mice; assay type: in vivo, mouse; details: 400 mg/kg i.p., 12 h fast
Procedure: Protocol 2: In the second series of studies, CD1, CXCR2ko and CXCR2wt mice were allowed free access to water for 12 h prior to an i.p. injection of 400 mg/kg acetaminophen. All acetaminophen challenged mice were fasted in this manner because previous studies have shown that fasting promotes hepatic susceptibility to acetaminophen toxicity by decreasing the inactivation of chemically reactive metabolites […], allowing these metabolites to bind hepatocyte proteins and cause cell damage (Whitcomb and Block, 1994; Pessayre et al., 1979; each incorporated herein by reference). […] Two hours prior to acetaminophen challenge, CD1 mice (n=1 0/group) were injected with 0.5 ml of normal rabbit serum or anti-mouse MIP-2 antiserum, and mouse survival was monitored for the subsequent 4 days. CXCR2ko and CXCR2wt mice (n=5/group) were injected i.p. with the same dose of acetaminophen, and mouse survival was monitored for 4 days.

CBA/J mice = assay: Acetaminophen dose response in CBA/J mice; assay type: in vivo, mouse; details: 8 h fast
Procedure: (§1) Six wk old female CBA/J mice (Jackson Laboratory, Bar Harbor, Me.) were fasted, but with free access to water, for 8 h prior to intraperitoneal (I.P.) injection of acetaminophen (Sigma) at 200 or 300 mg/kg, dissolved in normal saline. After injection, the animals were allowed free access to food. Mice were euthanized and liver was taken from the mice at various time points after acetaminophen injection into the mice.
To determine the level of acetaminophen that was necessary to induce liver damage, a dose response was performed. In these studies, normal CBA/J mice were fasted for 8 h and subsequently given an intraperitoneal injection of acetaminophen dissolved in PBS or PBS alone for control. Mouse survival was followed for 4 days when the study was terminated. 20 mice/group were used in 2 separate studies.

[1] = system: CBA/J mice treated with acetaminophen; assay: Exogenous SCF at lethal acetaminophen dose; assay type: in vivo, mouse
Procedure: as §1
Hepatic damage was measured using an AXIO-HOME microscope by 2 independent investigators. Sections of liver tissue (2 from each animal) were stained with hematoxylin and eosin and the area of hepatic damage was outlined and expressed as a % of total liver area examined.
In order to finally determine whether SCF has a role in protecting the animals from acetaminophen toxicity, 1 μg of recombinant murine SCF or saline was injected i.v. at the time of or within 30 min. of acetaminophen challenge. The survival of animals was recorded for 4 days and the study was terminated. % Survival data was collected from 2 separate studies with a total of 20 mice in each treatment group.

Molecule | Lethality (CD1 and BALB/c mice) | Lethality (CBA/J mice; 200 mg/kg i.p.) | Lethality (CBA/J mice; 300 mg/kg i.p., by 48 h) | Hepatocyte proliferation in vitro (hepatocytes) | Survival ([1]; 1 ug i.v. at or within 30 min of lethal acetaminophen dose, 4 days) | Liver histology ([1]; 300 mg/kg acetaminophen, 1 ug SCF)
CC(=O)Nc1ccc(O)cc1 [acetaminophen] | approximately 10% | no lethality | ~100% | – | – | –
SCF: recombinant murine stem cell factor (protein) KEICGNPVTDNVKDITKLVANLPNDYMITLNYVAGMDVLPSHCWLRDMVIQLSLSLTTLLDKFSNISEGLSNYSIIDKLGKIVDDLVLCMEENAPKNIKESPKRPETRSFTPEEFFSIFNRSIDAFKDFMVASDTSDCVLSSTLGPEKDSRVSVTKPFMLPPVA | – | – | – | can directly induce hepatocyte proliferation in vitro | 90% | no necrotic areas
